For data set [1], the system named is Mus musculus. Description: In vivo antimalarial activity to reduce parasitaemia in mice (Mus musculus) infected with Plasmodium berghei by 50% of the control; range 1 mg/kg to 3 mg/kg. Format: functional.
Data set [2] concerns Plasmodium falciparum. The data set can be described thus: In vitro antimalarial activity for Plasmodium falciparum; range 3 nM to 10 nM. Format: functional, organism-based.
In data set [3] the test system is Plasmodium falciparum. The data set can be described thus: In vitro antimalarial activity for Plasmodium falciparum. Format: functional, organism-based.
Data set [4] relates to Mus musculus. Description: In vivo antimalarial activity to reduce parasitaemia in mice (Mus musculus) infected with Plasmodium berghei by 50% of the control. Format: functional.
Data set [5] concerns Plasmodium falciparum. The data set can be described thus: Inhibitory concentration against Plasmodium falciparum.
Data set [6] is described as follows: Half life of compound was determined. Format: ADME.
In data set [7] the test system is Plasmodium falciparum. Description: Inhibitory concentration against Plasmodium falciparum. The source holds these as a separate data set.

Structures are written as SMILES. pIC50: −log10 of the molar value.

The results in this text go back to ChEMBL document CHEMBL1148317, “A medicinal chemistry perspective on artemisinin and related endoperoxides” (J Med Chem, 2004).

Compound `OC1CCC2(CC1)OOC1(O2)C2CC3CC(C2)CC1C3` (stereo unspecified) displayed an ED50 in the data set on Mus musculus [1] of 3 mg/kg. For the same compound, in the data set on Plasmodium falciparum [2], the pIC50 is 8.00. The compound `Clc1ccc2c(NCCNC3CCC4(CC3)OOC3(O4)C4CC5CC(C4)CC3C5)ccnc2c1` (stereo unspecified) had a pIC50 with Plasmodium falciparum [3] of 8.60. For `Fc1ccc(C2=C[C@H]3OC4(CCCC4)OO[C@@]3(c3ccc(F)cc3)C2)cc1`, in the data set with Mus musculus [4], the 50% effect level (ED50) was put at a dose of 2.7 mg/kg. In addition, the pIC50 in the data set with Plasmodium falciparum [3] is 8.40. The compound `C[C@@H]1CC[C@H]2[C@@H](C)C(=O)O[C@@H]3O[C@@]4(C)CC[C@@H]1[C@]32OO4` [ARTEMISININ] gave a pIC50 in the data set with Plasmodium falciparum [5] of 8.00.

With `C[C@H]1[C@H](OCc2ccc(C(=O)[O-])cc2)O[C@@H]2O[C@]3(C)CCC[C@H]4[C@H](C)CC[C@@H]1[C@@]24OO3.[Na+]`, the half-life in data set [6] was 3 h.

`CO[C@H]1O[C@@]2(c3ccc(F)cc3)CCC[C@H]3CCCC[C@]31OO2` registered an ED50 with Mus musculus [4] of 10 mg/kg. The compound also showed a pIC50 with Plasmodium falciparum [3] of 7.52.

On to `CO[C@H]1O[C@@H](c2ccc(C(=O)O)cc2)C2CC[C@H]3CCCCC31OO2` (stereo partly specified), for which, in the data set on Mus musculus [4], the ED50 stood at 10 mg/kg. Further, the pIC50 with Plasmodium falciparum [3] was 7.52. For the compound `CC1(OCc2ccccc2)CCC2C[C@@H]1OO[C@]2(C)CS(=O)(=O)c1ccccc1` (stereo partly specified), it took a dose of 0.43 mg/kg to reach the 50% effect level with Mus musculus [4] (ED50). The pIC50 in the data set on Plasmodium falciparum [3] is 8.03. As for `C1CCCCCC2(CCCCC1)OOCCCOO2`, the negative logarithm of the IC50 (pIC50) with Plasmodium falciparum [7] is 8.52; in the data set with Plasmodium falciparum [3] it was 7.60. This compound also had an ED50 in the data set on Mus musculus [4] of 20 mg/kg.

The term ED50 denotes the dose that gives a 50% effect, or the effect in half of the subjects. A lower ED50 goes with an effect at a small dose. By pIC50 is commonly meant the IC50 on a negative log10 scale, so that one unit is a factor of ten. A lower pIC50 goes with a high IC50. Broadly, the half-life is the time in which the quantity being followed falls by half. Low readings indicate fast loss, high ones slow loss.
